Legend:
THP-1 (AML) cells = assay: LSD1 CD11b cellular assay (flow cytometry); format: cell-based; settings: Homo sapiens, THP-1, 96 h; CD11b expressing cells, 4 days incubation
Experimental: To analyze LSD1 inhibitor efficacy in cells, a CD11b flow cytometry assay was performed. LSD1 inhibition induces CD11b expression in THP-1 (AML) cells which can be measured by flow cytometry. […] LSD1 test compounds were serially diluted in DMSO. The dilutions were added to each well accordingly to a final concentration of 0.2% DMSO. The cells were incubated at 37 degrees Celsius in 5% CO2 for 4 days. 250 μL of each well was transferred to a well in a 96 well round bottom plate. The plate was centrifuged at 1200 rpm at 4 degrees Celsius in a Beckman Coulter Alegra 6KR centrifuge for 5 minutes. The media was removed leaving the cells at the bottom of the wells. The cells were washed in 100 μL cold HBSS (Hank's Balanced Salt Solution) plus 2% BSA (Bovine Serum Albumin) solution and centrifuged at 1200 rpm at 4 degrees Celsius for 5 minutes. The wash was removed. […] The cells were centrifuged and washed two times in 100 μL HBSS plus 2% BSA. After the final spin the cells were resuspended in 100 μL HBSS plus 2% BSA containing 1 ug/mL DAPI (4′,6-diamidino-2-phenylindole). The cells were then analyzed by flow cytometry in a BD FACSAria machine. Cells were analyzed for CD11b expression. The percent of CD11b expressing cells for each inhibitor concentration was used to determine an IC50 curve for each compound analyzed.

full-length human LSD1 = full-length human LSD1 (Homo sapiens (Human), UniProt O60341); assay: In vitro enzyme inhibition assay LSD-1 (TR-FRET); format: biochemical; settings: H3K4me1-biotin peptide
Experimental: This assay determines the ability of a test compound to inhibit LSD1 demethylase activity.
The enzymatic assay of LSD1 activity is based on Time Resolved-Fluorescence Resonance Energy Transfer (TR-FRET) detection.
Plates were read by EnVision Multilabel Reader in TR-FRET mode (excitation at 320 nm, emission at 615 nm and 665 nm) after 1 hour incubation at room temperature.
The ability of the compounds disclosed herein to inhibit LSD1 activity was quantified and the respective IC50 value was determined.

| SMILES | IC50 (THP-1 (AML) cells) [nM] | IC50 (full-length human LSD1) [nM] |
| --- | --- | --- |
| CCn1c(-c2ccc(OC)cc2)c(-c2ccc(C#N)cc2)cc(N2CCC(N)CC2)c1=O [Example 82, 4-[5-(4-aminopiperidin-1-yl)-1-ethyl-2-(4-methoxyphenyl)-6-oxopyridin-3-yl]benzonitrile] | < 100 | < 100 |
| CNC1CCN(c2cc(-c3ccc(C#N)c(F)c3)c(-c3ccc(OC)c(F)c3)n(C)c2=O)CC1 [Example 86, 2-fluoro-4-[2-(3-fluoro-4-methoxyphenyl)-1-methyl-5-[4-(methylamino)piperidin-1-yl]-6-oxopyridin-3-yl]benzonitrile] | < 100 | < 100 |
| COc1ccc(-c2c(-c3ccc(C#N)nc3)cc(NC[C@H]3CCNC3)c(=O)n2C)cc1 [Example 69, (S)-5-(2-(4-methoxyphenyl)-1-methyl-6-oxo-5-(pyrrolidin-3-ylmethylamino)-1,6-dihydropyridin-3-yl)picolinonitrile] | 100 to 1000 | < 100 |
| CCc1ccc(-c2c(-c3ccc(C#N)c(F)c3)cc(NC[C@H]3CCNC3)c(=O)n2C)cc1 [Example 72, (S)-4-(2-(4-ethylphenyl)-1-methyl-6-oxo-5-(pyrrolidin-3-ylmethylamino)-1,6-dihydropyridin-3-yl)-2-fluorobenzonitrile] | < 100 | < 100 |
| COCCn1c(-c2ccc(C)cc2)c(-c2ccc(C#N)c(F)c2)nc(NC[C@H]2CCNC2)c1=O [Example 43, 4-(6-{[((3S)-pyrrolidin-3-yl)methyl]amino}-4-(2-methoxyethyl)-3-(4-methylphenyl)-5-oxo(4-hydropyrazin-2-yl))-2-fluorobenzenecarbonitrile] | < 100 | < 100 |
| Cn1c(-c2ccc(OCC3CC3)cc2)c(-c2ccc(C#N)c(F)c2)nc(NC[C@H]2CCNC2)c1=O [Example 61, 4-{3-(4-cyclopropylmethoxy-phenyl)-4-methyl-5-oxo-6-[((3S)-pyrrolidin-3-ylmethyl)-amino]-4,5-dihydro-pyrazin-2-yl}-2-fluoro-benzonitrile] | < 100 | < 100 |
| Cn1c(-c2ccc(C3CC3)cc2)c(-c2ccc(C#N)nc2)nc(NC[C@H]2CCNC2)c1=O [Example 58, 5-{3-(4-cyclopropyl-phenyl)-4-methyl-5-oxo-6-[((3S)-pyrrolidin-3-ylmethyl)-amino]-4,5-dihydro-pyrazin-2-yl}-pyridine-2-carbonitrile] | 100 to 1000 | < 100 |
| COc1ccc(-c2c(-c3ccc(C#N)nc3)nc(NC[C@H]3CCNC3)c(=O)n2C)cc1 [Example 54, 5-{3-(4-methoxy-phenyl)-4-methyl-5-oxo-6-[((3S)-pyrrolidin-3-ylmethyl)-amino]-4,5-dihydro-pyrazin-2-yl}-pyridine-2-carbonitrile] | < 100 | < 100 |
| C[C@@H](c1ccccc1)n1cc(-c2ccc(C#N)cc2)nc(N2CCC(N)CC2)c1=O [Example 13, 4-[6-(4-aminopiperidin-1-yl)-5-oxo-4-[(1S)-1-phenylethyl]-4,5-dihydropyrazin-2-yl]benzonitrile] | 1000 to 10000 | < 100 |
| N#Cc1ccc(-c2cn(Cc3ccccc3)c(=O)c(N3CCC(N)CC3)n2)cc1 [Example 1, 4-[6-(4-aminopiperidin-1-yl)-4-benzyl-5-oxo-4,5-dihydropyrazin-2-yl]benzonitrile] | 100 to 1000 | < 100 |
| CNC1CCN(c2cc(-c3ccc(C#N)cc3)c(-c3ccc(OC)cc3)n(C)c2=O)CC1 [Example 78, 4-{2-(4-methoxyphenyl)-1-methyl-5-[4-(methylamino)piperidyl]-6-oxo-3-hydropyridyl}benzenecarbonitrile] | < 100 | < 100 |
| COCCn1c(-c2ccc(C)cc2)c(-c2ccc(C#N)c(F)c2)nc(N2CCC(N)CC2)c1=O [Example 41, 4-[6-(4-amino-piperidin-1-yl)-4-(2-methoxy-ethyl)-5-oxo-3-p-tolyl-4,5-dihydro-pyrazin-2-yl]-2-fluoro-benzonitrile] | < 100 | < 100 |
| CNC1CCN(c2nc(-c3ccc(C#N)c(F)c3)c(-c3ccc(C)cc3)n(CCO)c2=O)CC1 [Example 65, 2-Fluoro-4-[4-(2-hydroxy-ethyl)-6-(4-methylamino-piperidin-1-yl)-5-oxo-3-p-tolyl-4,5-dihydro-pyrazin-2-yl]-benzonitrile] | < 100 | < 100 |
| CNC1CCN(c2nc(-c3ccc(C#N)c(F)c3)c(-c3ccc(C)cc3)n(CCCO)c2=O)CC1 [Example 64, 2-Fluoro-4-[4-(3-hydroxy-propyl)-6-(4-methylamino-piperidin-1-yl)-5-oxo-3-p-tolyl-4,5-dihydro-pyrazin-2-yl]-benzonitrile] | < 100 | < 100 |
| N#Cc1ccc(-c2cn(Cc3ccc(F)cc3)c(=O)c(N3CCC(N)CC3)n2)cc1 [Example 9, 4-[6-(4-aminopiperidin-1-yl)-4-[(4-fluorophenyl)methyl]-5-oxo-4,5-dihydropyrazin-2-yl]benzonitrile] | 100 to 1000 | < 100 |
| COc1cccc(Cn2cc(-c3ccc(C#N)cc3)nc(N3CCC(N)CC3)c2=O)c1 [Example 10, 4-[6-(4-aminopiperidin-1-yl)-4-[(3-methoxyphenyl)methyl]-5-oxo-4,5-dihydropyrazin-2-yl]benzonitrile] | 100 to 1000 | < 100 |
| COc1ccc(-c2c(-c3ccc(C#N)c(F)c3)cc(N3CCC(N)CC3)c(=O)n2CC2CC2)cc1 [Example 85, 4-[5-(4-aminopiperidin-1-yl)-1-(cyclopropylmethyl)-2-(4-methoxyphenyl)-6-oxopyridin-3-yl]-2-fluorobenzonitrile] | < 100 | < 100 |
| CCn1c(-c2ccc(OC)cc2)c(-c2ccc(C#N)c(F)c2)cc(N2CCC(N)CC2)c1=O [Example 87, 4-[5-(4-aminopiperidin-1-yl)-1-ethyl-2-(4-methoxyphenyl)-6-oxopyridin-3-yl]-2-fluorobenzonitrile] | < 100 |  |

Next, values leading:

| IC50 (THP-1 (AML) cells) [nM] | IC50 (full-length human LSD1) [nM] | SMILES |
| --- | --- | --- |
| < 100 | < 100 | Cc1ccc(-c2c(-c3ccc(C#N)cc3)nc(N3CCC4CNCC4C3)c(=O)n2C)cc1 (centres unmarked) [Example 23, 4-[4-methyl-3-(4-methylphenyl)-6-{octahydro-1H-pyrrolo[3,4-c]pyridin-5-yl}-5-oxo-4,5-dihydropyrazin-2-yl]benzonitrile] |
| < 100 | < 100 | CNC1CCN(c2nc(-c3ccc(C#N)cc3)c(-c3ccc(C)cc3)n(C)c2=O)CC1 [Example 20, 4-{4-methyl-6-[4-(methylamino)piperidin-1-yl]-3-(4-methylphenyl)-5-oxo-4,5-dihydropyrazin-2-yl}benzonitrile] |
| < 100 | < 100 | Cc1ccc(-c2c(-c3ccc(C#N)nc3)nc(N3CCC(N)CC3)c(=O)n2C)cc1 [Example 19, 5-[6-(4-aminopiperidin-1-yl)-4-methyl-3-(4-methylphenyl)-5-oxo-4,5-dihydropyrazin-2-yl]pyridine-2-carbonitrile] |
| < 100 | < 100 | Cc1ccc(-c2c(-c3ccc(C#N)cc3)nc(NC[C@H]3CCNC3)c(=O)n2C)cc1 [Example 17, 4-[4-methyl-3-(4-methylphenyl)-5-oxo-6-{[(3S)-pyrrolidin-3-ylmethyl]amino}-4,5-dihydropyrazin-2-yl]benzonitrile] |
| < 100 | < 100 | Cn1c(-c2ccc(C3CC3)cc2)c(-c2ccc(C#N)c(F)c2)nc(N2CCC(N)CC2)c1=O [Example 50, 4-[6-(4-amino-piperidin-1-yl)-3-(4-cyclopropyl-phenyl)-4-methyl-5-oxo-4,5-dihydro-pyrazin-2-yl]-2-fluoro-benzonitrile] |
| < 100 | < 100 | COCCCn1c(-c2ccc(C)cc2)c(-c2ccc(C#N)cc2)nc(N2CCC(N)CC2)c1=O [Example 39, 4-[6-(4-amino-piperidin-1-yl)-4-(3-methoxy-propyl)-5-oxo-3-p-tolyl-4,5-dihydro-pyrazin-2-yl]-benzonitrile] |
| < 100 | < 100 | Cc1ccc(-c2c(-c3ccc(C#N)cc3)nc(N3CCC(N)CC3)c(=O)n2C)cn1 [Example 49, 4-[6-(4-amino-piperidin-1-yl)-4-methyl-3-(6-methyl-pyridin-3-yl)-5-oxo-4,5-dihydro-pyrazin-2-yl]-benzonitrile] |
| < 100 | < 100 | Cc1ccc(-c2c(-c3ccc(C#N)cc3)nc(N3CCCC(N)C3)c(=O)n2C)cc1 (centres unmarked) [Example 22, 4-[6-(3-aminopiperidin-1-yl)-4-methyl-3-(4-methylphenyl)-5-oxo-4,5-dihydropyrazin-2-yl]benzonitrile] |
| < 100 | < 100 | N#Cc1ccc(-c2nc(N3CCC(N)CC3)c(=O)n(CCO)c2-c2ccc(C3CC3)cc2)cc1 [Example 38, 4-[6-(4-amino-piperidin-1-yl)-3-(4-cyclopropyl-phenyl)-4-(2-hydroxy-ethyl)-5-oxo-4,5-dihydro-pyrazin-2-yl]-benzonitrile] |
